What was measured:
Human HDAC6 = Human HDAC6 (Homo sapiens (Human), UniProt Q9UBN7); assay: HDAC6 enzymatic activity assay (Caliper endpoint or fluorogenic format); type: biochemical; details: for IC50: in vitro enzymatic; for Selectivity (6 v 8) (fold): ratio of HDAC8 IC50/HDAC6 IC50
Human HDAC8 = Human HDAC8 (Homo sapiens (Human), UniProt Q9BY41); assay: Caliper endpoint assay for HDAC8 enzymatic activity; type: biochemical; details: in vitro enzymatic
Chain of Human HDAC8 (Q9BY41 whole entry): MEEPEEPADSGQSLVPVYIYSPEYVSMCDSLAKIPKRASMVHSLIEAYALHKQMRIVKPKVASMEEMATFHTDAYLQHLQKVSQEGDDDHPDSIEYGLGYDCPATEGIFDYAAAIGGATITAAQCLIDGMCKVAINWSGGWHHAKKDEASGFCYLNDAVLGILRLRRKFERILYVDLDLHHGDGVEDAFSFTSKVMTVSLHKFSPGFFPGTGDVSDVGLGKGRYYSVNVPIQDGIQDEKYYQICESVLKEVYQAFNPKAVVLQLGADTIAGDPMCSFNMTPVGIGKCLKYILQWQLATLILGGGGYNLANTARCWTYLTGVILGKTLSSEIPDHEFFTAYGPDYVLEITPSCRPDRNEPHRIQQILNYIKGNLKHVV

Chain of Human HDAC6 (Q9UBN7 whole entry): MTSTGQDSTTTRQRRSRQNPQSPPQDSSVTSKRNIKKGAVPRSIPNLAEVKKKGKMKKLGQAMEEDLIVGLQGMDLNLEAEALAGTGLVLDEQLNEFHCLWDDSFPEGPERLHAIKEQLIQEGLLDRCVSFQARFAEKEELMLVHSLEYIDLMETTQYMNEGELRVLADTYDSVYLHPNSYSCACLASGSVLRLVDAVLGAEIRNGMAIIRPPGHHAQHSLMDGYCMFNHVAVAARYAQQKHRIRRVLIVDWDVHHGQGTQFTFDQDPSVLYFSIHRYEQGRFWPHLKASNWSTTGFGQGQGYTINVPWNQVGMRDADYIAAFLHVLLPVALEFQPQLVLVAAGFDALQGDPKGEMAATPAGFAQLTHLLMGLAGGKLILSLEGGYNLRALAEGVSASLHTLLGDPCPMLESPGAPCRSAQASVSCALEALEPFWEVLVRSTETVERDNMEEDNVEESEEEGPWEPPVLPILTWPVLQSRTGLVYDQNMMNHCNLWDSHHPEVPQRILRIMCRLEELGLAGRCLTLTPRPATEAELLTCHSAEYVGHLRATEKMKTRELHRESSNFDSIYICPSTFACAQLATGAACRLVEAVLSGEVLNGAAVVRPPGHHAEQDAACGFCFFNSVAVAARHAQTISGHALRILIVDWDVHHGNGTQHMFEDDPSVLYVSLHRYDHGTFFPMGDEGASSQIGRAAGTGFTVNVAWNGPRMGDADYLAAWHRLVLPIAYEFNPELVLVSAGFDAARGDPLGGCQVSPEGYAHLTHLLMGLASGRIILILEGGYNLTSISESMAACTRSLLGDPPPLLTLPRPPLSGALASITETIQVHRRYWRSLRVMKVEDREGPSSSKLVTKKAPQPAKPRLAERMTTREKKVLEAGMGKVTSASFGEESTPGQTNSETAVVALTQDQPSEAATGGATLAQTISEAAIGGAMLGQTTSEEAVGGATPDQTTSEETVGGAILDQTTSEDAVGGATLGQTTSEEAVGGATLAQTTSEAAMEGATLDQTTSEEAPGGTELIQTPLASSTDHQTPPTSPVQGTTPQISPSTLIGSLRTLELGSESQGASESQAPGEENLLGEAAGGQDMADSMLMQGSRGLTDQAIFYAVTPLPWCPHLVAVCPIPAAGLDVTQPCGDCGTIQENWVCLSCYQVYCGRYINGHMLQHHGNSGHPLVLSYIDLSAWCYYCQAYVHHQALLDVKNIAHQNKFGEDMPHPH

| SMILES | IC50 (Human HDAC6) [nM] | Selectivity (6 v 8) (fold) (Human HDAC6) | IC50 (Human HDAC8) [nM] |
| --- | --- | --- | --- |
| Fc1ccc(OCc2ncc(-c3nnc(C(F)F)o3)cn2)cc1 [Compound 1, 2-(difluoromethyl)-5-(2-((4-fluorophenoxy)methyl)pyrimidin-5-yl)-1,3,4-oxadiazole] | 1 to 100 | V (V: >1000) | > 100000 |
| Fc1ccc(Cl)cc1OCc1ccc(-c2nnc(C(F)F)o2)cn1 [Compound 2, 2-(6-((5-chloro-2-fluorophenoxy)methyl)pyridin-3-yl)-5-(difluoromethyl)-1,3,4-oxadiazole] | 1 to 100 | V (V: >1000) | > 100000 |
| Fc1cc(Cl)ccc1OCc1ccc(-c2nnc(C(F)F)o2)cn1 [Compound 3, 2-(6-((4-chloro-2-fluorophenoxy)methyl)pyridin-3-yl)-5-(difluoromethyl)-1,3,4-oxadiazole] | 1 to 100 | V (V: >1000) | > 100000 |
| Fc1ccc(OCc2ccc(-c3nnc(C(F)F)o3)cn2)c(Cl)c1 [Compound 4, 2-(6-((2-chloro-4-fluorophenoxy)methyl)pyridin-3-yl)-5-(difluoromethyl)-1,3,4-oxadiazole] | 1 to 100 | V (V: >1000) | > 100000 |
| Fc1ccc(OCc2ccc(-c3nnc(C(F)F)o3)cn2)c(F)c1 [Compound 5, 2-(difluoromethyl)-5-(6-((2,4-difluorophenoxy)methyl)pyridin-3-yl)-1,3,4-oxadiazole] | 1 to 100 | V (V: >1000) | > 100000 |
| Fc1cc(-c2nnc(C(F)F)o2)cnc1COc1cccc2cccnc12 [Compound 130] | 1 to 100 | – | – |
| Fc1ccc(OCc2ncc(-c3nnc(C(F)F)o3)cc2F)c(F)c1 [Compound 131] | 1 to 100 | – | – |
| Fc1cc(-c2nnc(C(F)F)o2)cnc1COc1cccc2ncccc12 [Compound 132] | 1 to 100 | – | – |
| Cc1noc2cccc(OCc3ncc(-c4nnc(C(F)F)o4)cn3)c12 [Compound 134] | 1 to 100 | – | – |
| Cc1noc2cc(OCc3ncc(-c4nnc(C(F)F)o4)cn3)ccc12 [Compound 136] | 1 to 100 | – | – |
| Cc1noc2cc(OCc3ncc(-c4nnc(C(F)F)o4)cc3F)ccc12 [Compound 137, 6-((5-(5-(difluoromethyl)-1,3,4-oxadiazol-2-yl)-3-fluoropyridin-2-yl)methoxy)-3-methylbenzo[d]isoxazole] | 1 to 100 | – | – |
| Cn1ncc2cc(OCc3ncc(-c4nnc(C(F)F)o4)cn3)ccc21 [Compound 138] | 1 to 100 | – | – |
| Cn1ncc2cc(OCc3ncc(-c4nnc(C(F)F)o4)cc3F)ccc21 [Compound 139, 2-(difluoromethyl)-5-(5-fluoro-6-(((1-methyl-1H-indazol-5-yl)oxy)methyl)pyridin-3-yl)-1,3,4-oxadiazole] | 1 to 100 | – | – |
| Cc1nc2cc(OCc3ncc(-c4nnc(C(F)F)o4)cn3)ccc2o1 [Compound 140] | 1 to 100 | – | – |
| Cc1nc2cc(OCc3ncc(-c4nnc(C(F)F)o4)cc3F)ccc2o1 [Compound 141] | 1 to 100 | – | – |
| FC(F)c1nnc(-c2cnc(COc3ccc4ocnc4c3)nc2)o1 [Compound 142] | 1 to 100 | – | – |
| FC(F)c1nnc(-c2cnc(COc3cccc4ocnc34)nc2)o1 [Compound 144] | 1 to 100 | – | – |
| Cn1cnc2cc(OCc3ncc(-c4nnc(C(F)F)o4)cn3)ccc21 [Compound 146] | 1 to 100 | – | – |
| Cn1cnc2cc(OCc3ncc(-c4nnc(C(F)F)o4)cc3F)ccc21 [Compound 147] | 1 to 100 | – | – |
| FC(F)c1nnc(-c2cnc(COc3ccc4nccnc4c3)nc2)o1 [Compound 150] | 1 to 100 | – | – |

| SMILES | IC50 (Human HDAC6) [nM] | Selectivity (6 v 8) (fold) (Human HDAC6) | IC50 (Human HDAC8) [nM] |
| --- | --- | --- | --- |
| Fc1cc(-c2nnc(C(F)F)o2)cnc1COc1ccc2nccnc2c1 [Compound 151] | 1 to 100 | – | – |
| FC(F)c1nnc(-c2cnc(COc3ccc4ncccc4c3)nc2)o1 [Compound 152] | 1 to 100 | – | – |
| Fc1cc(-c2nnc(C(F)F)o2)cnc1COc1ccc2ncccc2c1 [Compound 153] | 1 to 100 | – | – |
| FC(F)c1nnc(-c2cnc(COc3ccc4cnccc4c3)nc2)o1 [Compound 154] | 1 to 100 | – | – |
| Fc1cc(-c2nnc(C(F)F)o2)cnc1COc1ccc2cnccc2c1 [Compound 155] | 1 to 100 | – | – |
| FC(F)c1nnc(-c2cnc(COc3ccc4ccncc4c3)nc2)o1 [Compound 156] | 1 to 100 | – | – |
| Fc1cc(-c2nnc(C(F)F)o2)cnc1COc1ccc2ccncc2c1 [Compound 157] | 1 to 100 | – | – |
| FC(F)c1nnc(-c2cnc(COc3cccc4nccnc34)nc2)o1 [Compound 158] | 1 to 100 | – | – |
| Fc1cc(-c2nnc(C(F)F)o2)cnc1COc1cccc2nccnc12 [Compound 159] | 1 to 100 | – | – |
| FC(F)c1nnc(-c2cnc(COc3cccc4cncnc34)nc2)o1 [Compound 160] | 1 to 100 | – | – |
| Fc1cc(-c2nnc(C(F)F)o2)cnc1COc1cccc2cncnc12 [Compound 161] | 1 to 100 | – | – |
| FC(F)c1nnc(-c2cnc(COc3cccnc3)nc2)o1 [Compound 162] | 1 to 100 | – | – |
| N#Cc1ccc(OCc2ncc(-c3nnc(C(F)F)o3)cn2)cc1 [Compound 164] | 1 to 100 | – | – |
| N#Cc1ccc(OCc2ncc(-c3nnc(C(F)F)o3)cc2F)cc1 [Compound 165] | 1 to 100 | – | – |
| Fc1ccc(OCc2ncc(-c3nnc(C(F)F)o3)cn2)cc1 [Compound 166, 2-(difluoromethyl)-5-(2-((4-fluorophenoxy)methyl)pyrimidin-5-yl)-1,3,4-oxadiazole] | 1 to 100 | – | – |
| N#Cc1cccc(OCc2ncc(-c3nnc(C(F)F)o3)cc2F)c1 [Compound 167] | 1 to 100 | – | – |
| C#Cc1ccccc1OCc1ncc(-c2nnc(C(F)F)o2)cn1 [Compound 168] | 1 to 100 | – | – |
| FC(F)c1nnc(-c2ccc(COc3ccc4c(c3)CCNC4)nc2)o1 [Compound 170] | 100 to 1000 | – | – |
| Cn1cc2cc(OCc3ncc(-c4nnc(C(F)F)o4)cc3F)ccc2n1 [Compound 178, 2-(Difluoromethyl)-5-(5-fluoro-6-(((2-methyl-2H-indazol-5-yl)oxy)methyl)pyridin-3-yl)-1,3,4-oxadiazole] | 1 to 100 | – | – |
| Fc1cc(-c2nnc(C(F)F)o2)cnc1COc1cccc2ncncc12 [Compound 179, 2-(Difluoromethyl)-5-(5-fluoro-6-((quinazolin-5-yloxy)methyl)pyridin-3-yl)-1,3,4-oxadiazole] | 1 to 100 | – | – |

| SMILES | IC50 (Human HDAC6) [nM] | Selectivity (6 v 8) (fold) (Human HDAC6) | IC50 (Human HDAC8) [nM] |
| --- | --- | --- | --- |
| Fc1cc(-c2nnc(C(F)F)o2)cnc1COc1ccc2cncnc2c1 [Compound 180, 2-(difluoromethyl)-5-(5-fluoro-6-((quinazolin-7-yloxy)methyl)pyridin-3-yl)-1,3,4-oxadiazole] | 1 to 100 | – | – |
| Fc1cc(-c2nnc(C(F)F)o2)cnc1COc1ccc2ncncc2c1 [Compound 181, 2-(Difluoromethyl)-5-(5-fluoro-6-((quinazolin-6-yloxy)methyl)pyridin-3-yl)-1,3,4-oxadiazole] | 1 to 100 | – | – |
| Fc1cc(-c2nnc(C(F)F)o2)cnc1COc1ccc2ccccc2c1 [Compound 182, 2-(Difluoromethyl)-5-(5-fluoro-6-((naphthalen-2-yloxy)methyl)pyridin-3-yl)-1,3,4-oxadiazole] | 1 to 100 | – | – |
| FC(F)c1nnc(-c2ccc(COc3cnc4ccnn4c3)nc2)o1 [Compound 183, 2-(Difluoromethyl)-5-(6-((pyrazolo[1,5-a]pyrimidin-6-yloxy)methyl)pyridin-3-yl)-1,3,4-oxadiazole] | 1 to 100 | – | – |
| FC(F)c1nnc(-c2ccc(COc3ccc(-c4ccccc4)cc3)nc2)o1 [Compound 185, 2-(6-(([1,1′-Biphenyl]-4-yloxy)methyl)pyridin-3-yl)-5-(difluoromethyl)-1,3,4-oxadiazole] | 1 to 100 | – | – |
| FC(F)c1nnc(-c2ccc(COc3ccnc(-c4ccccc4)c3)nc2)o1 [Compound 186, 2-(Difluoromethyl)-5-(6-(((2-phenylpyridin-4-yl)oxy)methyl)pyridin-3-yl)-1,3,4-oxadiazole] | 1 to 100 | – | – |
| FC(F)c1nnc(-c2ccc(COc3ccccc3-c3ccccc3)nc2)o1 [Compound 187, 2-(6-(([1,1′-biphenyl]-2-yloxy)methyl)pyridin-3-yl)-5-(difluoromethyl)-1,3,4-oxadiazole] | 1000 to 10000 | – | – |
| FC(F)c1nnc(-c2ccc(COc3cccc(-c4ccccc4)c3)nc2)o1 [Compound 188, 2-(6-(([1,1′-Biphenyl]-3-yloxy)methyl)pyridin-3-yl)-5-(difluoromethyl)-1,3,4-oxadiazole] | 100 to 1000 | – | – |
| FC(F)c1nnc(-c2ccc(COc3ccnc(Cl)c3)nc2)o1 [Compound 189, 2-(6-(((2-Chloropyridin-4-yl)oxy)methyl)pyridin-3-yl)-5-(difluoromethyl)-1,3,4-oxadiazole] | 1 to 100 | – | – |
| O=C(Nc1ccccc1)c1cccc(OCc2ccc(-c3nnco3)cn2)c1 [Compound 196, 3-((5-(1,3,4-oxadiazol-2-yl)pyridin-2-yl)methoxy)-N-phenylbenzamide] | 1 to 100 | – | – |
| CNC(=O)c1cccc(OCc2ccc(-c3nnc(C(F)F)o3)cn2)c1 [Compound 197, 3-((5-(5-(difluoromethyl)-1,3,4-oxadiazol-2-yl)pyridin-2-yl)methoxy)-N-methylbenzamide] | 1 to 100 | – | – |
| Cn1nccc1-c1ccc(OCc2ccc(-c3nnc(C(F)F)o3)cn2)cc1 [Compound 199, 2-(Difluoromethyl)-5-(6-((4-(1-methyl-1H-pyrazol-5-yl)phenoxy)methyl)pyridin-3-yl)-1,3,4-oxadiazole] | 1 to 100 | – | – |
| Cn1c(-c2ccc(OCc3ccc(-c4nnc(C(F)F)o4)cn3)cc2)nc2ccccc21 [Compound 200] | 1 to 100 | – | – |
| Cn1c(-c2cccc(OCc3ccc(-c4nnc(C(F)F)o4)cn3)c2)nc2ccccc21 [Compound 201] | 1 to 100 | – | – |
| FC(F)c1nnc(-c2ccc(COc3cnc(C(F)(F)F)nc3)nc2)o1 [Compound 205] | 1 to 100 | – | – |
| FC(F)c1nnc(-c2ccc(COc3cccc(-c4nc5ccccc5[nH]4)c3)nc2)o1 [Compound 206] | 1 to 100 | – | – |
| FC(F)c1nnc(-c2ccc(COc3ccc(-c4nc5ccccc5[nH]4)cc3)nc2)o1 [Compound 207] | 1 to 100 | – | – |
| Cn1cnc2c(OCc3ccc(-c4nnc(C(F)F)o4)cn3)cccc21 [Compound 208] | 1 to 100 | – | – |
| Cn1cnc2ccc(OCc3ccc(-c4nnc(C(F)F)o4)cn3)cc21 [Compound 213] | 1 to 100 | – | – |
